Experimental data as given in article PMC7844538, “Peptide-Conjugated Phosphorodiamidate Morpholino Oligomers Retain Activity against Multidrug-Resistant Pseudomonas aeruginosa In Vitro and In Vivo” (mBio, 2021).

Legend:
P. aeruginosa MB447 = experiment: MIC against XDR strain MB447; format: cell-based, Pseudomonas aeruginosa; conditions: medium not stated
Procedure: MIC assays of PPMOs were determined according to the Clinical and Laboratory Standards Institute (CLSI) broth microdilution method ([29]), using the method previously described ([14]). The assays were performed in 96-well tissue culture plates (Thermo Fisher Scientific, Waltham, MA). All reagents were analytical grade and were obtained from Sigma-Aldrich (St. Louis, MO), Acros Organics (Geel, Belgium), UT Southwestern Campus Pharmacy, or Thermo Fisher Scientific (Waltham, MA). Morpholinopropanesulfonic acid (MOPS) minimal medium was prepared as previously described ([30], [31]).

[1] = tested on: P. aeruginosa strain MB447; experiment: Acute pneumonia mouse model with XDR strain, survival; format: in vivo, Pseudomonas aeruginosa in BALB/c mice; conditions: for survival at day 4: 15 mg/kg intratracheal at 15 min, then intranasal at 24 h (legend: 6 h); for Median survival: 15 mg/kg, two treatments, Kaplan-Meier
Procedure: To test whether PPMOs retained in vivo activity in an XDR strain, we utilized the AcpP-RXR(5′) PPMO in the acute pneumonia model using XDR P. aeruginosa strain MB447, a carbapenem-resistant bloodstream isolate. […] Mice were infected intratracheally followed by intratracheal treatment 15 min postinfection with either 15 mg/kg of AcpP-RXR(5′), scrambled control PPMO (Scr), PBS, 15 mg/kg of meropenem, or 15 mg/kg of tobramycin, and the bacterial burden was determined at 24 h postinfection.
Mice were infected intratracheally with P. aeruginosa strain MB447 (∼10^7 CFU/mouse). (A) Mice were treated intratracheally 15 min postinfection with 15 mg/kg/24 h of AcpP-RXR(5′) and the corresponding scrambled PPMO, tobramycin, and meropenem and were euthanized at 24 h, and lung tissues were processed as previously described. All samples were plated for viable CFU on PIA. Each symbol represents the value for a single mouse. Error bars represent SEM. Statistical differences were determined using one-way ANOVA and indicated as follows: ****, P < 0.0001; **, P < 0.01; *, P < 0.05. (B) Mice were treated intratracheally 15 min postinfection and intranasally at 6 h postinfection (a total of two treatments) with the same compounds and doses. Mice were monitored for 4 days postinfection.
P. aeruginosa strains PA103, PA103 P1-lux, and MB447 were grown on Pseudomonas isolation agar (PIA) for 16 to 18 h at 37°C and suspended in PBS to an optical density at 600 nm (OD600) of 0.5, corresponding to ∼10^9 CFU/ml. Inocula were adjusted spectrophotometrically to obtain the desired sublethal challenge dose in a volume of 25 μl. Six- to 8-week-old female BALB/c mice (Jackson Laboratories, Bar Harbor, ME) were anesthetized by intraperitoneal injection of 0.2 ml of a mixture of ketamine (6.7 mg/ml) and xylazine (1.3 mg/ml). Mice were infected by noninvasive intratracheal instillation of dilutions of P. aeruginosa strain as indicated ([34]).

[2] = tested on: P. aeruginosa PAO1 biofilm; experiment: Established biofilm on MBEC pegs, crystal violet (total biomass); format: cell-based, Pseudomonas aeruginosa; conditions: PAO1, 24 h biofilm, dosed at 24, 32, 40 h, read at 48 h; tobramycin 0.625 µg/ml, piperacillin-tazobactam 0.25 µg/ml, PPMO 0.25 µM (legend 2.5 μM)
Procedure: We previously reported that treatment with PPMO alone was effective in both preventing and decreasing established P. aeruginosa biofilm in vitro ([14]). Here, we aimed to determine whether combining a PPMO with a traditional antibiotic (that also had minimal biofilm-inhibitory activity on its own) could enhance biofilm eradication compared to either drug alone. Biofilms were established in minimal biofilm eradication concentration (MBEC) plates by growing P. aeruginosa PAO1 at 37°C. At 24 h postinoculation, lids with established biofilm were moved to new 96-well plates containing fresh media with either antibiotic only (0.625 µg/ml tobramycin or 0.25 µg/ml piperacillin-tazobactam), PPMO only [0.25 µM either AcpP-RXR(3′) or RpsJ-RXR(3′)], or PPMO plus antibiotic as indicated. We hypothesized that the combination of antibiotics and PPMOs targeting a similar cellular process, such as bacterial cell wall (AcpP and piperacillin-tazobactam) or protein synthesis (RpsJ and tobramycin) would enhance biofilm eradication.
FIG 1 PPMOs in combination with traditional antibiotics display enhanced activity and reduce established P. aeruginosa strain PAO1 biofilm. […] Statistical differences were determined by one-way ANOVA and indicated as follows: ***, P < 0.0001; **, P < 0.001; *, P < 0.05; n.s., not significant. […]

[3] = tested on: P. aeruginosa PAO1 biofilm; experiment: Established biofilm on MBEC pegs, viability (resazurin, CFU); format: cell-based, Pseudomonas aeruginosa; conditions: PAO1, 24 h biofilm, dosed at 24, 32, 40 h, read at 48 h; tobramycin 0.625 µg/ml, PPMO 0.25 µM (legend 2.5 μM)
Procedure: PAO1 biofilms were established on MBEC pegs for 24 h and then treated either with 0.625 μg/ml tobramycin, 0.25 μg/ml piperacillin/tazobactam (Pip/Tazo), 2.5 μM AcpP-RXR(3′), 2.5 μM RpsJ-RXR(3′) or with a combination of PPMO and antibiotic at 24, 32, and 40 h. […]
The viability and metabolic state of biofilm-associated cells were determined using resazurin dye ([17]). […] This time point was previously optimized based on the time needed for the untreated control cells to reach maximum fluorescence. The plates were read at an excitation of 530 nm and emission of 590 nm on a Synergy BioTek plate reader. Viable CFU from the biofilms were also determined by rinsing MBEC pegs in PBS three times to remove planktonic bacteria, followed by cutting the peg off the base with a hot scalpel and placing it in a 14 ml Falcon tube containing 1 ml PBS. […]

P. aeruginosa PA103 = experiment: Acute pneumonia mouse model, intraperitoneal PPMO alone or with tobramycin, survival; format: in vivo, Pseudomonas aeruginosa in BALB/c mice; conditions: intraperitoneal at 6, 12 and 24 h; Kaplan-Meier
Procedure: Mice were treated by intraperitoneal injection of RpsJ-RXR(3′) (15 mg/kg), tobramycin (15 mg/kg), scrambled PPMO (15 mg/kg) alone or in combination (scrambled PPMO plus tobramycin or RpsJ PPMO plus tobramycin) at 6, 12, and 24 h for a total of three treatments after intratracheal infection with a […] dose of P. aeruginosa PA103. Mice were monitored for up to 4 days postinfection. […] Mice treated with RpsJ-RXR(3′) or tobramycin had 50 to 60% increased survival compared to PBS or scrambled control, respectively.
FIG 4 PPMOs work in concert with traditional antibiotics to improve survival in acute lung model of infection. […] Mice were monitored for 4 days postinfection. Results are represented by Kaplan-Meier survival curves and were analyzed by log rank test (log rank test, RpsJ versus PBS, P < 0.001; RpsJ versus Scr, P < 0.05; RpsJ versus RpsJ plus tobramycin, P < 0.05; Scr versus Scr plus tobramycin, P = 0.1778. Median survival: PBS, 36 h; Scr, 48 h; RpsJ, tobramycin, and combination treatments, undefined). […]
Mice were infected as described above and treated either intraperitoneally or intranasally with 15 mg/kg/treatment of PPMO or corresponding controls as indicated. Animals were treated at 6, 12, or 24 h postinfection, with a total of three doses and were monitored for survival up to 4 days postinfection.

Compound | MIC of strain MB447 against antibiotic (P. aeruginosa MB447) [µM] | survival at day 4 [1] [%] | Median survival [1] | reduction of established biofilm mass compared to untreated [2] | decrease of biofilm cell viability compared to no treatment [3] [%] | Median survival (P. aeruginosa PA103)
C[C@@H](O)[C@H]1C(=O)N2C(C(=O)O)=C(S[C@@H]3CN[C@H](C(=O)N(C)C)C3)[C@H](C)[C@H]12 [meropenem] | 32 | 0 | 34 h |  |  | 
NC[C@H]1O[C@H](O[C@H]2[C@H](O)[C@@H](O[C@H]3O[C@H](CO)[C@@H](O)[C@H](N)[C@H]3O)[C@H](N)C[C@@H]2N)[C@H](N)C[C@@H]1O [tobramycin] | 8 | 67 | undefined | 50% | 50 | undefined
piperacillin-tazobactam |  |  |  | no impact on established biofilm |  | 
